What all share (experiment): Candida growth inhibition, micro-broth dilution
Common to all, as to format: cell-based
(Broth dilution looks for growth in wells or tubes with falling amounts of substance.)

One experiment has as its system Candida tropicalis. As to conditions: estimate; for Hill-slope: dose-response curve. As for the experimental part: (§1) The proteins were chemically synthesised by solid phase peptide synthesis at a purity of >90% by (GL Biochem Ltd. Shanghai, People's Republic of China). Post-synthesis, the proteins were stored lyophilised at −20° C. to maintain their integrity. The proteins were weighed and dissolved in ultrapure water as a stock solution prior to experimentation. For all assays a 1:1 dilution was made with double-strength broth, the composition of which was tailored to the specific requirements of the organism.
(§2) Antifungal activity was assessed by a micro-broth dilution method modified by Handcock for cationic peptides and proteins. Given the propensity of cationic peptides and proteins to bind polystyrene, 96-well polypropylene plates were used as an alternative. Candida species MIC analysis were performed using ½ strength potato dextrose broth (PDB).
(§3) 96-well flat-bottomed polypropylene plates were prepared 30 mins prior to inoculation. The outer wells of the plate were filled with 200 μl of diH2O to mitigate evaporation in test lanes during incubation with low volumes and for prolonged periods. Given the high cost of the synthetic proteins minimal volume of 100 μl was utilised, and preliminary testing was conducted in duplicate. 50 μl of ½ strength PDB was dispensed into all remaining wells except column 3. 100 μl was added to column 2 and acting as a ‘broth only’ sterile control. Subsequently, 100 μl of the top standard protein solution, prepared at a 2× concentration (500 μg/ml) and suspended in half-strength PDB, was added to column 3. Using a multichannel pipette, 50 μl from each well in column 3 (rows B through G) were mixed with an equal volume of broth in column 4. This procedure was repeated by serial diluting the protein down to column 10. The final […] was not transferred to lane 11 but was instead disposed of.
(§4) Candida species were grown over 48 hours on ½ strength potato dextrose agar (PDA) at a temperature of 35° C. Cells were harvested directly from the agar plates and resuspended in 2 ml of ½ PDB. The cell concentration was determined using a haemocytometer, and subsequently, cells were diluted to 1×10^5 cells/ml in ½ strength PDB, resulting in a concentration of 5,000 cells per well. 50 μl of the diluted cell suspension was added to the wells in columns 3-11, working backwards from the lowest protein concentration. This step ensured a total volume of 100 μl in each well, giving a final top standard protein concentration of 250 μg/ml in the assay. Column 11 was designated as the growth control, containing cells only.
(§5) Absorbance readings were taken at time zero (T=0) at a wavelength of 595 nm for the analysis of all Candida spp. Subsequently, all plates were incubated at 35° C. for 24 hrs. To ensure uniform resuspension of cells, a multichannel pipette was used to agitate the cell suspension. A second series of absorbance measurements at 595 nm was conducted at T=24, enabling a comprehensive assessment of growth over the 24-hour period).
(§6) The activities of synthetic plant-like defensin analogues Olv1 and Olv2 were assessed against Candida albicans sc5314 (Table 2, FIG. 5A), Candida parapsilosis (Table 3, FIG. 5B), Candida tropicalis (Table 4, FIG. 5C) and Candida krusei (Table 5, FIG. 5D).
(§7) Log IC50: The logarithm of the concentration at which 50% inhibition of growth is observed, Hill-slope: Describes the steepness of the curve; a steeper slope indicates a more cooperative binding to the target and a sharper transition between the non-effective and effective doses and IC50: The actual concentration at which 50% inhibition is achieved, derived from the Log IC50.

A further experiment concerns Candida albicans 5314. The settings on record: estimate. As for the experimental part: as §1, §2, §3, §4, §5, §6, §7
A further experiment has as its system Candida parapsilosis. As to conditions: estimate; for Hill-slope: dose-response curve; for IC50 / LogIC50: growth inhibition, 24 hrs, 35° C., ½ strength PDB. As for the experimental part:
as §1, §2, §3, §4, §5, §6, §7

A further experiment has as its system Candida krusei. Further details: LogIC50: unit not given here. As to conditions: estimate; for Hill-slope: dose-response curve; for IC50 / LogIC50: growth inhibition, 24 hrs, 35° C., ½ strength PDB. As for the experimental part:
as §1, §2, §3, §4, §5, §6, §7

The mark [1] stands for this setting: growth inhibition, 24 hrs, 35° C., ½ strength PDB.
Setting [2] is: Candida albicans 5314, growth inhibition, 24 hrs, 35° C., ½ strength PDB.

Where no end group is shown, it is not given here.

For two sequences, Hill-slope, LogIC50 and IC50 results are on record in patent US20250257103A1, “Antimicrobial Proteins” (The Olive Feed Corporation Limited, priority 2024, published 2025).

Usually IC50 stands for the midpoint of a concentration-inhibition curve.

In the case of “RTCESQSHRFKGSCVSKSNCAAVCQTEGFPDGYCRGFRRRCFCSKHC (cysteines drawn unpaired) [Olv1]”, the Hill-slope in the experiment on Candida tropicalis was −9.410; in the experiment on Candida parapsilosis, −3.181; in the experiment on Candida krusei, −11.209. Besides, the LogIC50 in the experiment on Candida tropicalis (setting [1]) was 1.602 log10(μg/ml); with Candida albicans 5314 (setting [2]) it was 1.974; in the experiment with Candida parapsilosis, 1.755; in the experiment with Candida krusei it was 1.957. In addition, the IC50 in the experiment on Candida albicans 5314 (setting [2]) was 94.113 µg/mL; in the experiment with Candida parapsilosis, 56.919 µg/mL; in the experiment with Candida krusei, 90.642 µg/mL.
“RVCSRLSKTWSGLCLNSGNCNRQCRNWEGALRGACHKRGWGFACFCYRKC (cysteines drawn unpaired) [Olv2]”: the Hill-slope is −4.862 in the experiment with Candida tropicalis; −11.59 in the experiment with Candida albicans 5314 (Candida albicans 5314, dose-response curve); −3.474 in the experiment on Candida parapsilosis; −10.527 with Candida krusei. Also, the IC50 in the experiment on Candida tropicalis (setting [1]) is 26.098 µg/mL; with Candida parapsilosis it was 54.233 µg/mL; with Candida krusei, 40.346 µg/mL. The LogIC50 in the experiment with Candida tropicalis (setting [1]) is 1.417 log10(μg/ml); with Candida albicans 5314 (setting [2]), 1.866; in the experiment with Candida parapsilosis, 1.734; in the experiment with Candida krusei, 1.606.
